From PubChem BioAssay AID256 (DTP/NCI, 2004)
Inconclusive results and toxic doses are left out. The calls were made as follows: active = survival T/C of 150% or more; inactive = T/C below 125% in these data.

System: CD2F1 mice, L1210 leukemia ip, survival T/C
Assay: NCI In Vivo Anticancer Drug Screen. Data for tumor model L1210 Leukemia (intraperitoneal) in CD2F1 (CDF1) mice
Conditions: higher = longer survival
Procedure, shortened: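 Mice carrying a transplanted tumor received test compound or vehicle alone. The value is the measurement in the treated group divided by that in the vehicle-treated control group.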

[1] = endpoint: mean survival time, dose: 100.0 mg/kg/injection, schedule: Q04DX003 (ip), vehicle: saline with Tween-80
[2] = endpoint: mean survival time, dose: 200.0 mg/kg/injection, schedule: Q04DX003 (ip), vehicle: saline with Tween-80
[3] = endpoint: mean survival time, dose: 400.0 mg/kg/injection, schedule: Q04DX003 (ip), vehicle: saline with Tween-80
[4] = endpoint: mean survival time, dose: 100.0 mg/kg/injection, schedule: Q01DX009 (ip), vehicle: saline with Tween-80
[5] = endpoint: mean survival time, dose: 200.0 mg/kg/injection, schedule: Q01DX009 (ip), vehicle: saline with Tween-80
[6] = endpoint: mean survival time, dose: 400.0 mg/kg/injection, schedule: Q01DX009 (ip), vehicle: saline with Tween-80
[7] = endpoint: mean survival time, dose: 100.0 mg/kg/injection, schedule: Q04DX002 (ip), vehicle: saline with Tween-80
[8] = endpoint: mean survival time, dose: 200.0 mg/kg/injection, schedule: Q04DX002 (ip), vehicle: saline with Tween-80
[9] = endpoint: mean survival time, dose: 400.0 mg/kg/injection, schedule: Q04DX002 (ip), vehicle: saline with Tween-80
[10] = endpoint: mean survival time, dose: 100.0 mg/kg/injection, schedule: Q01DX001 (ip), vehicle: saline
[11] = endpoint: mean survival time, dose: 200.0 mg/kg/injection, schedule: Q01DX001 (ip), vehicle: saline
[12] = endpoint: mean survival time, dose: 400.0 mg/kg/injection, schedule: Q01DX001 (ip), vehicle: saline

Measured: T/C

NC(=O)CC(N)C(=O)O.[Cl-].[Cl-].[Cl-].[Cl-].[Pt+2] (centres undefined)
inactive: endpoint: mean survival time, dose: 0.78 mg/kg/injection, schedule: Q01DX009 (ip), vehicle: water 101 % of control | endpoint: mean survival time, dose: 1.56 mg/kg/injection, schedule: Q01DX009 (ip), vehicle: water 95 % of control | endpoint: mean survival time, dose: 3.13 mg/kg/injection, schedule: Q01DX009 (ip), vehicle: water 98 % of control | endpoint: mean survival time, dose: 6.25 mg/kg/injection, schedule: Q01DX009 (ip), vehicle: water 90 % of control | endpoint: mean survival time, dose: 12.5 mg/kg/injection, schedule: Q01DX009 (ip), vehicle: water 101 % of control

Cc1ccc(N=C=C(c2ccccc2)c2ccccc2)cc1
inactive: [1] 94 % of control | [2] 97 % of control | [3] 94 % of control

CC#CCOCC(O)CCl (centres undefined)
inactive: endpoint: median survival time, dose: 50.0 mg/kg/injection, schedule: Q01DX005 (ip), vehicle: saline 97 % of control | endpoint: median survival time, dose: 50.0 mg/kg/injection, schedule: Q01DX005 (ip), vehicle: suspension in saline 104 % of control | endpoint: median survival time, dose: 100.0 mg/kg/injection, schedule: Q01DX005 (ip), vehicle: saline 94 % of control | endpoint: median survival time, dose: 100.0 mg/kg/injection, schedule: Q01DX005 (ip), vehicle: suspension in saline 101 % of control | endpoint: median survival time, dose: 200.0 mg/kg/injection, schedule: Q01DX005 (ip), vehicle: saline 97 % of control | endpoint: median survival time, dose: 200.0 mg/kg/injection, schedule: Q01DX005 (ip), vehicle: suspension in saline 96 % of control | endpoint: median survival time, dose: 400.0 mg/kg/injection, schedule: Q01DX005 (ip), vehicle: saline 117 % of control

COC(=O)C(I)C(OC)c1ccccc1 (centres undefined)
inactive: [4] 107 % of control | [5] 100 % of control | [6] 97 % of control

CCOC(=O)NC(C#N)=C(Cl)Cl
inactive: [7] 114 % of control | [8] 88 % of control | [9] 100 % of control

O=C(C1CC=C2c3ccccc3CCC2C1C(=O)N1CCCCC1)N1CCCCC1 (centres undefined)
inactive: endpoint: mean survival time, dose: 75.0 mg/kg/injection, schedule: Q01DX001 (ip), vehicle: saline 104 % of control | endpoint: mean survival time, dose: 150.0 mg/kg/injection, schedule: Q01DX001 (ip), vehicle: saline 98 % of control | endpoint: mean survival time, dose: 300.0 mg/kg/injection, schedule: Q01DX001 (ip), vehicle: saline 107 % of control

CCCC(=O)Nc1ccc(S(=O)(=O)Nc2ccc(S(=O)(=O)N3CCOCC3)cc2)cc1
inactive: endpoint: mean survival time, dose: 100.0 mg/kg/injection, schedule: Q01DX001 (ip), vehicle: saline with Tween-80 103 % of control | endpoint: mean survival time, dose: 200.0 mg/kg/injection, schedule: Q01DX001 (ip), vehicle: saline with Tween-80 92 % of control | endpoint: mean survival time, dose: 400.0 mg/kg/injection, schedule: Q01DX001 (ip), vehicle: saline with Tween-80 94 % of control

CCOC(=O)C#Cc1cccc(C(=O)OC)c1-c1c(I)cccc1C(=O)OC
inactive: endpoint: median survival time, dose: 12.5 mg/kg/injection, schedule: Q04DX003 (ip), vehicle: saline with Tween-80 100 % of control | endpoint: median survival time, dose: 25.0 mg/kg/injection, schedule: Q04DX003 (ip), vehicle: saline with Tween-80 100 % of control | endpoint: median survival time, dose: 50.0 mg/kg/injection, schedule: Q04DX003 (ip), vehicle: saline with Tween-80 88 % of control | endpoint: median survival time, dose: 100.0 mg/kg/injection, schedule: Q04DX003 (ip), vehicle: saline with Tween-80 88 % of control

CCC1CCCCN1C(=S)N/N=C(\C)c1ccccn1 (centres undefined)
inactive: endpoint: median survival time, dose: 6.25 mg/kg/injection, schedule: Q01DX009 (ip), vehicle: saline with Tween-80 101 % of control | endpoint: median survival time, dose: 12.5 mg/kg/injection, schedule: Q01DX009 (ip), vehicle: saline with Tween-80 108 % of control | endpoint: median survival time, dose: 25.0 mg/kg/injection, schedule: Q01DX009 (ip), vehicle: saline with Tween-80 86 % of control

C1=CC2C3C=CC(C3)C2C1 (centres undefined)
inactive: endpoint: mean survival time, dose: 50.0 mg/kg/injection, schedule: Q01DX009 (ip), vehicle: saline with Tween-80 94 % of control | [4] 93 % of control | [5] 98 % of control

OCC1OC(n2nnc3cc[nH]c(=S)c32)C(O)C1O (centres undefined)
inactive: endpoint: mean survival time, dose: 11.9 mg/kg/injection, schedule: Q01DX005 (ip), vehicle: water 96 % of control | endpoint: mean survival time, dose: 23.8 mg/kg/injection, schedule: Q01DX005 (ip), vehicle: water 113 % of control

C=C(C)[C@@H]1CC[C@]2(CO)CC[C@]3(C)[C@H](CC[C@@H]4[C@@]5(C)CC[C@H](O)C(C)(C)[C@@H]5CC[C@]43C)[C@@H]12
inactive: [10] 98 % of control | [11] 98 % of control | [12] 98 % of control

CSc1ccc(OC(=O)C(C)NC(=O)C(CO)NC(=O)OCc2ccccc2)cc1 (centres undefined)
inactive: endpoint: mean survival time, dose: 50.0 mg/kg/injection, schedule: Q04DX002 (ip), vehicle: saline with Tween-80 95 % of control | [7] 92 % of control | [8] 95 % of control | [9] 92 % of control

O=S(O)C(=NCc1ccccc1)NCc1ccccc1
inactive: [4] 105 % of control | [5] 86 % of control

Nc1ccc(Br)cc1
inactive: [1] 97 % of control | [2] 100 % of control | [3] 87 % of control

CN(C)c1ccc(C(=O)OOOOC(c2ccc(N(C)C)cc2)(c2ccc(N(C)C)cc2)c2ccc(N(C)C)cc2)cc1
inactive: endpoint: mean survival time, dose: 50.0 mg/kg/injection, schedule: Q01DX001 (ip), vehicle: saline 95 % of control | [10] 95 % of control | [11] 107 % of control | [12] 89 % of control

CC(=O)OCC1OC(OC(C)=O)C(NC(=O)N(CCN(C)CCO)N=O)C(OC(C)=O)C1OC(C)=O (centres undefined)
inactive: endpoint: mean survival time, dose: 4.06 mg/kg/injection, schedule: Q04DX002 (ip), vehicle: saline + alcohol 100 % of control | endpoint: mean survival time, dose: 8.13 mg/kg/injection, schedule: Q04DX002 (ip), vehicle: saline + alcohol 101 % of control | endpoint: mean survival time, dose: 16.25 mg/kg/injection, schedule: Q04DX002 (ip), vehicle: saline + alcohol 101 % of control | endpoint: mean survival time, dose: 32.5 mg/kg/injection, schedule: Q04DX002 (ip), vehicle: saline + alcohol 97 % of control | endpoint: mean survival time, dose: 65.0 mg/kg/injection, schedule: Q04DX002 (ip), vehicle: saline + alcohol 101 % of control | endpoint: mean survival time, dose: 130.0 mg/kg/injection, schedule: Q04DX002 (ip), vehicle: saline + alcohol 107 % of control

Cc1cn(C2CC(O)C(COC(c3ccccc3)(c3ccccc3)c3ccc(OCC(=O)O)cc3)O2)c(=O)[nH]c1=O (centres undefined)
inactive: endpoint: mean survival time, dose: 12.5 mg/kg/injection, schedule: Q01DX005 (ip), vehicle: distilled water + Tween-80 100 % of control | endpoint: mean survival time, dose: 25.0 mg/kg/injection, schedule: Q01DX005 (ip), vehicle: distilled water + Tween-80 97 % of control | endpoint: mean survival time, dose: 50.0 mg/kg/injection, schedule: Q01DX005 (ip), vehicle: distilled water + Tween-80 96 % of control | endpoint: mean survival time, dose: 100.0 mg/kg/injection, schedule: Q01DX005 (ip), vehicle: distilled water + Tween-80 102 % of control | endpoint: mean survival time, dose: 200.0 mg/kg/injection, schedule: Q01DX005 (ip), vehicle: distilled water + Tween-80 94 % of control

Cc1[nH]c(=O)[nH]c(=O)c1-n1nnc2ccccc2c1=O
inactive: [1] 97 % of control | [2] 97 % of control | [3] 95 % of control

N#CC(C#N)=Cc1cccc(CC(O)(C(F)(F)F)C(F)(F)F)n1
inactive: [1] 105 % of control | [2] 94 % of control

N/C(=N/OCc1ccccc1)c1ncn(C2CCCC2)c1NC=O
inactive: endpoint: mean survival time, dose: 100.0 mg/kg/injection, schedule: Q01DX001 (ip), vehicle: other 112 % of control | endpoint: mean survival time, dose: 200.0 mg/kg/injection, schedule: Q01DX001 (ip), vehicle: other 104 % of control | endpoint: mean survival time, dose: 400.0 mg/kg/injection, schedule: Q01DX001 (ip), vehicle: other 102 % of control

CC(=O)C1=C(C)NC(C)=C(C(C)=O)C1c1ccccc1
inactive: [4] 103 % of control | [5] 107 % of control | [6] 107 % of control

Cc1cc2nc3ccc(=[N+](C)C)cc-3sc2cc1N
inactive: endpoint: mean survival time, dose: 25.0 mg/kg/injection, schedule: Q04DX003 (ip), vehicle: saline 109 % of control | endpoint: mean survival time, dose: 50.0 mg/kg/injection, schedule: Q04DX003 (ip), vehicle: saline 102 % of control
